Measured values from US20060058374A1, “Urotensin II receptor agents” (priority 2002, published 2006).

How the values were obtained:
rats [1] = conditions: oral administration to rats; cited from earlier work
rats [2] = conditions: oral administration to rats; cited from earlier work; remark: listed apart in the source
dogs = conditions: intravenal administration to dogs; cited from earlier work

| SMILES | melting point | also measured |
| --- | --- | --- |
| COc1cccc2c1CC(CCN(C)C)(c1ccccc1)OC2=O.Cl (centres unmarked) | > 250 °C (dec.) |  |
| CN1CCN(CCC2(c3ccc(Cl)cc3)Cc3ccccc3C(=O)O2)CC1.Cl (centres unmarked) | > 250 °C (dec.) |  |
| Cl.O=C1OC(CCN2CCCC2)(c2ccc(Cl)cc2)Cc2ccccc21 (centres unmarked) | > 250 °C (dec.) |  |
| Cl.O=C1OC(CCN2CCCCC2)(c2ccc(Cl)cc2)Cc2ccccc21 (centres unmarked) | > 250 °C (dec.) |  |
| COc1ccc(C2(CCN(C)C)Cc3ccccc3C(=O)O2)cc1.Cl (centres unmarked) | > 250 °C (dec.) |  |
| COc1cccc(C2(CCN(C)C)Cc3ccccc3C(=O)O2)c1.Cl (centres unmarked) | > 250 °C (dec.) |  |
| COc1ccccc1C1(CCN(C)C)Cc2ccccc2C(=O)O1.Cl (centres unmarked) | > 250 °C (dec.) |  |
| CN(C)CCC1(c2cccc(F)c2)Cc2ccccc2C(=O)O1.Cl (centres unmarked) | > 250 °C (dec.) |  |
| CN(C)CCC1(c2ccc(Oc3ccccc3)cc2)Cc2ccccc2C(=O)O1.Cl (centres unmarked) | 245.2 to 246.3 °C (dec.) |  |
| CN(C)CCC1(c2ccccc2Cl)Cc2ccccc2C(=O)O1.Cl (centres unmarked) | > 250 °C (dec.) |  |
| CN(C)CCC1(c2cccs2)Cc2ccccc2C(=O)O1.Cl (centres unmarked) | > 250 °C (dec.) |  |
| CN(C)CCC1(c2ccccc2)Cc2ccccc2C(=O)O1.Cl (centres unmarked) | > 250 °C (dec.) |  |
| Cc1cccc2c1CC(CCN(C)C)(c1ccccc1)OC2=O.Cl (centres unmarked) | > 250 °C (dec.) |  |
| Cc1ccc2c(c1)C(=O)OC(CCN(C)C)(c1ccccc1)C2.Cl (centres unmarked) | > 250 °C (dec.) |  |
| CCN(CC)CCC1(c2ccc(Cl)cc2)Cc2ccccc2C(=O)O1.Cl (centres unmarked) | > 250 °C (dec.) |  |
| CC1c2ccccc2C(=O)OC1(CCN(C)C)c1ccc(Cl)cc1.Cl (centres unmarked) | > 250 °C (dec.) |  |
| CN(C)CCC1(c2cccc(Cl)c2)Cc2ccccc2C(=O)O1.Cl (centres unmarked) | > 250 °C (dec.) |  |
| Cc1cccc2c1C(=O)OC(CCN(C)C)(c1ccc(Cl)cc1)C2.Cl (centres unmarked) | > 250 °C (dec.) |  |
| CN(C)CCCC1(c2ccc(Cl)cc2)Cc2ccccc2C(=O)O1.Cl (centres unmarked) | > 250 °C (dec.) |  |
| CC(CN(C)C)C1(c2ccccc2)Cc2ccccc2C(=O)O1 (centres unmarked) [3-(2-dimethylamino-(1-methyl-ethyl))-3,4-dihydro-3-phenyl-isocoumarin] |  | antihypertensive action (rats [1]): ineffective; diuretic action (rats [2]): diuretics |
| COc1ccc(C2(CCN(C)C)Cc3ccccc3C(=O)O2)cc1 (centres unmarked) [3-(2-dimethylamino-ethyl)-3,4-dihydro-3-(p-methoxy-phenyl)-isocoumarin] |  | anti-hypertensive activity (dogs): anti-hypertensive activity; diuretic action (rats [2]): diuretics |
| CN(C)CCC1(c2ccccc2)Cc2ccccc2C(=O)O1 (centres unmarked) [3-(2-dimethylamino-ethyl)-3,4-dihydro-3-phenyl-isocoumarin] |  | anti-hypertensive activity (dogs): anti-hypertensive activity; diuretic action (rats [2]): diuretics |
| CN(C)CCC1(c2ccccc2)Cc2ccccc2CO1 (centres unmarked) [3-(2-dimethylamino-ethyl)-3-(phenyl)-isochroman] |  | anti-hypertensive activity (dogs): anti-hypertensive activity |
